ChEMBL document CHEMBL4507268 (2021)

Tests used:
[1] = system: Epidermal growth factor receptor (Homo sapiens), P00533 [L861Q]; conditions: Compound concentration 1000.0 nM
[2] = biological target: Tyrosine-protein kinase JAK1 (Homo sapiens) (UniProt P23458); conditions: Compound concentration 1000.0 nM
[3] = biological target: Serine/threonine-protein kinase 26 (Homo sapiens) (UniProt Q9P289); conditions: Compound concentration 1000.0 nM
[4] = biological target: T1, Serine/threonine-protein kinase Nek1 (Homo sapiens) (UniProt Q96PY6); conditions: Compound concentration 1000.0 nM
T1 sequence (whole entry): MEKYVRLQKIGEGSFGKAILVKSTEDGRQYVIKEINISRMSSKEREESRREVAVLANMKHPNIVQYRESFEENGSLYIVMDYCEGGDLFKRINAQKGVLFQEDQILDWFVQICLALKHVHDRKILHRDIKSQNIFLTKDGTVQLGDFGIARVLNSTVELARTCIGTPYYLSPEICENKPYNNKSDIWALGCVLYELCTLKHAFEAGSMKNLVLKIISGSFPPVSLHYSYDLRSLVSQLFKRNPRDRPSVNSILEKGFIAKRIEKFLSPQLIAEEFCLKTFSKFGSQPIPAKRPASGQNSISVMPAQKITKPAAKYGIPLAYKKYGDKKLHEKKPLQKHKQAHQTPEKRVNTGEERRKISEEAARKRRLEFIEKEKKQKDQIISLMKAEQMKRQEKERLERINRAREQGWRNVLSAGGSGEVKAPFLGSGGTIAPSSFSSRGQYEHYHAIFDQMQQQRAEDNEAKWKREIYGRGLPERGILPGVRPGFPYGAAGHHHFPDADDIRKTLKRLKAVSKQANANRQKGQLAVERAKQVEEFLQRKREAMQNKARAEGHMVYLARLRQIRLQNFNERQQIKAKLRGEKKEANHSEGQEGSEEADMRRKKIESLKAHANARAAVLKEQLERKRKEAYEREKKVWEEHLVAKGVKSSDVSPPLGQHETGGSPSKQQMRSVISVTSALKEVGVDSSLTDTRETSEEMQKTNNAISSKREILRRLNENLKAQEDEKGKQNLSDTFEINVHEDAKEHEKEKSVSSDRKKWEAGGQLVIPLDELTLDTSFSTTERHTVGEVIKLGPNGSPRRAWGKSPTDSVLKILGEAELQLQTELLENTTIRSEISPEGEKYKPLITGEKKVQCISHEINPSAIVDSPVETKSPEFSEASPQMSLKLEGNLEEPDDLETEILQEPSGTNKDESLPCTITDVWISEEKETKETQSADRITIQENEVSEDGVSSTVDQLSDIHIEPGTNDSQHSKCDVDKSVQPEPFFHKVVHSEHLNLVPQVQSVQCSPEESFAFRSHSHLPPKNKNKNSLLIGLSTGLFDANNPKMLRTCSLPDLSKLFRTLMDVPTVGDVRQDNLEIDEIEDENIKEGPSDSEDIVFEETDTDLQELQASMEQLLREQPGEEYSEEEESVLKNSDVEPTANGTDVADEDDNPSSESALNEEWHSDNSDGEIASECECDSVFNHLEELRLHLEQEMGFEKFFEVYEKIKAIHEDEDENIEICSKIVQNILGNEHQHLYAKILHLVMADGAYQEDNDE

[5] = system: Phosphatidylinositol 4,5-bisphosphate 3-kinase catalytic subunit alpha isoform (Homo sapiens), P42336 [C420R]; conditions: Compound concentration 1000.0 nM
Chain of Phosphatidylinositol 4,5-bisphosphate 3-kinase catalytic subunit alpha isoform (Homo sapiens), P42336 [C420R] (P42336 whole entry C420R, canonical isoform): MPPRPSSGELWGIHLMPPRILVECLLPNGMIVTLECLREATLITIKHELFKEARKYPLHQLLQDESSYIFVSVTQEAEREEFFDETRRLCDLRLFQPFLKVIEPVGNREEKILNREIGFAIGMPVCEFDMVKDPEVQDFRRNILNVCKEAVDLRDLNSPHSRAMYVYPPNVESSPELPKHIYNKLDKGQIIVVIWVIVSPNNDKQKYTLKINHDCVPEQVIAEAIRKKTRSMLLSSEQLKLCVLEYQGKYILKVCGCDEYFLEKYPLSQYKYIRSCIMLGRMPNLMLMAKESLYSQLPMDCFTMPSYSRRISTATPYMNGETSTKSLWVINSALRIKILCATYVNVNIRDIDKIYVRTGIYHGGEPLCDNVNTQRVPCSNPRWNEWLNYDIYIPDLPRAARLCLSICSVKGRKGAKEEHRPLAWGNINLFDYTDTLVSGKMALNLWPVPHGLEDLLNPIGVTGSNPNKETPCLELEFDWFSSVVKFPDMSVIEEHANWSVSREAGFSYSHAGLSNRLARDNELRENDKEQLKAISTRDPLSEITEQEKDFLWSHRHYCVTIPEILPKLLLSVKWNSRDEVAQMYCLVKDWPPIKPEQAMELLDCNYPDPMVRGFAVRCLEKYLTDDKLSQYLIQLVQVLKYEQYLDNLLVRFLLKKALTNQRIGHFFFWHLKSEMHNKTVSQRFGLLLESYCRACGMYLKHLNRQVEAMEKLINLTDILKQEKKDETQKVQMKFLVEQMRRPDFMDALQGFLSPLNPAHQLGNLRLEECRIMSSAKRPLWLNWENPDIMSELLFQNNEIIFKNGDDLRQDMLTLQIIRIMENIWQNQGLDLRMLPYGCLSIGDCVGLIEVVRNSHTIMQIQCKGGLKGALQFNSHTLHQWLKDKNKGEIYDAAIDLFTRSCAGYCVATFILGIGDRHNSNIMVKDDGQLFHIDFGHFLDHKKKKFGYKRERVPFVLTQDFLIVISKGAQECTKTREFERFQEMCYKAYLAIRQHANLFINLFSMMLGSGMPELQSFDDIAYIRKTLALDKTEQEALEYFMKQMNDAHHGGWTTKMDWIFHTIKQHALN

[6] = biological target: T2, Serine/threonine-protein kinase D2 (Homo sapiens) (UniProt Q9BZL6); conditions: Compound concentration 1000.0 nM
T2 sequence (whole entry): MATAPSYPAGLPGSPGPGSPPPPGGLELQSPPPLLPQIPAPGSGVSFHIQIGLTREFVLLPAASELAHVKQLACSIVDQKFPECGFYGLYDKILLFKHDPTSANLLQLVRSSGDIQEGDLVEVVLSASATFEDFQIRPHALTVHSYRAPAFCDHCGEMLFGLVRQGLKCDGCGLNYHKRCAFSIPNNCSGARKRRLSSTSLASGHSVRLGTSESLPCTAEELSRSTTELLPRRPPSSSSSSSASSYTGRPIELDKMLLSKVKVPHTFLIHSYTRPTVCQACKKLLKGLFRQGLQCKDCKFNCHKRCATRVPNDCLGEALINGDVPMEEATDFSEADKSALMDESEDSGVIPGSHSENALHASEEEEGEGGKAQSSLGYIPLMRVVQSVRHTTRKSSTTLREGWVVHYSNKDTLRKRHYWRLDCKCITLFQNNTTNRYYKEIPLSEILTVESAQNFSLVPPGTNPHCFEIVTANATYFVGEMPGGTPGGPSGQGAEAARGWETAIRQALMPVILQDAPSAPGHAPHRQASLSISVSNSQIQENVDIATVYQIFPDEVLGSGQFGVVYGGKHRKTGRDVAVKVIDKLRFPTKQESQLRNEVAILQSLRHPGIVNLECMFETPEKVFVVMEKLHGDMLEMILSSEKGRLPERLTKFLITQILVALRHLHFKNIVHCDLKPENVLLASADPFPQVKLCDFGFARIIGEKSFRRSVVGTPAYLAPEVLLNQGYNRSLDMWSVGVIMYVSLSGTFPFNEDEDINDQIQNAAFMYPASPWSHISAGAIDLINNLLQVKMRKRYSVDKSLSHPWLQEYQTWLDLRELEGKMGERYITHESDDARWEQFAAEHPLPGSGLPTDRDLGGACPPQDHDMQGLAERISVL

[7] = biological target: Ribosomal protein S6 kinase alpha-2 (Homo sapiens) (UniProt Q15349); conditions: Compound concentration 1000.0 nM
Chain of Ribosomal protein S6 kinase alpha-2 (Homo sapiens) (Q15349 whole entry): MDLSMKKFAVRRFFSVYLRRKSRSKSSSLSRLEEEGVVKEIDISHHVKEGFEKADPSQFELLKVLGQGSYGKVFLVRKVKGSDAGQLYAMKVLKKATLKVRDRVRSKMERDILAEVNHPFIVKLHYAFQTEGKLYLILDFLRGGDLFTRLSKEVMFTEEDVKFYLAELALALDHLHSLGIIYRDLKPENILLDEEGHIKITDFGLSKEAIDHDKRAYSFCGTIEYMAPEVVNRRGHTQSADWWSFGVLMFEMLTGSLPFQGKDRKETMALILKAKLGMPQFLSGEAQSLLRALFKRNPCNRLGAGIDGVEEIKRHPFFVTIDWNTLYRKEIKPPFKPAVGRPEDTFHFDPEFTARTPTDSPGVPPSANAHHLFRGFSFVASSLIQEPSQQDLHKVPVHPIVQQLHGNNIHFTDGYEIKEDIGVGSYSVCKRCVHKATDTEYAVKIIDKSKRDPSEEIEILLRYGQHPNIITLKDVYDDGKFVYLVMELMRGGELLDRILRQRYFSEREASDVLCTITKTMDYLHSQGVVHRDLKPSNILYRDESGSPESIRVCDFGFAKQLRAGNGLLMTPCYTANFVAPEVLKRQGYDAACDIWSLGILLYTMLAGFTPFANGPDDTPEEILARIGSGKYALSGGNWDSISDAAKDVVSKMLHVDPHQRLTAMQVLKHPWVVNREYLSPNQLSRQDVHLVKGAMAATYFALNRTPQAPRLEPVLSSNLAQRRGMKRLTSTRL

[8] = biological target: Delta-type opioid receptor (Homo sapiens) (UniProt P41143); conditions: Compound concentration 10.0 uM
Chain of Delta-type opioid receptor (Homo sapiens) (P41143 whole entry): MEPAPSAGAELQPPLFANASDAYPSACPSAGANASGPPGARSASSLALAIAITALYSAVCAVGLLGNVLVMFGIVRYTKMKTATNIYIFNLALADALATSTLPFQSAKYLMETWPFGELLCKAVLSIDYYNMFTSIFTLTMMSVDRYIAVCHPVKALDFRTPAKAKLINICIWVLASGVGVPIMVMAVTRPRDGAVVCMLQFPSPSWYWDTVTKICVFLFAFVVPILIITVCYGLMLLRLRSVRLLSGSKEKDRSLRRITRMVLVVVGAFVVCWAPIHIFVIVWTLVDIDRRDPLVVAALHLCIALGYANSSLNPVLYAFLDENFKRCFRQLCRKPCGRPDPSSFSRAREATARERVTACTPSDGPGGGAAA

Chain of Serine/threonine-protein kinase 26 (Homo sapiens) (Q9P289 2-416 limits assumed): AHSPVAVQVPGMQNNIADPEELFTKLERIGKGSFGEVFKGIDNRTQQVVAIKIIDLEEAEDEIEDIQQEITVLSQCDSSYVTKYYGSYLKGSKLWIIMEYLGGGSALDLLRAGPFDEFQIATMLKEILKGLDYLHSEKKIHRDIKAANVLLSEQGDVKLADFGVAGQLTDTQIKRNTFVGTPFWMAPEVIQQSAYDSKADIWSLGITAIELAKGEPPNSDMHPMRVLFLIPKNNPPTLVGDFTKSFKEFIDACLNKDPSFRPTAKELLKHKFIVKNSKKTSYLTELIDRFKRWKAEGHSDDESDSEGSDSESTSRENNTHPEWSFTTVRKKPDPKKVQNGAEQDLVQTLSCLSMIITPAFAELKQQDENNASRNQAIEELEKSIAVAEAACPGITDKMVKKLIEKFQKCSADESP
Chain of Tyrosine-protein kinase JAK1 (Homo sapiens) (P23458 whole entry): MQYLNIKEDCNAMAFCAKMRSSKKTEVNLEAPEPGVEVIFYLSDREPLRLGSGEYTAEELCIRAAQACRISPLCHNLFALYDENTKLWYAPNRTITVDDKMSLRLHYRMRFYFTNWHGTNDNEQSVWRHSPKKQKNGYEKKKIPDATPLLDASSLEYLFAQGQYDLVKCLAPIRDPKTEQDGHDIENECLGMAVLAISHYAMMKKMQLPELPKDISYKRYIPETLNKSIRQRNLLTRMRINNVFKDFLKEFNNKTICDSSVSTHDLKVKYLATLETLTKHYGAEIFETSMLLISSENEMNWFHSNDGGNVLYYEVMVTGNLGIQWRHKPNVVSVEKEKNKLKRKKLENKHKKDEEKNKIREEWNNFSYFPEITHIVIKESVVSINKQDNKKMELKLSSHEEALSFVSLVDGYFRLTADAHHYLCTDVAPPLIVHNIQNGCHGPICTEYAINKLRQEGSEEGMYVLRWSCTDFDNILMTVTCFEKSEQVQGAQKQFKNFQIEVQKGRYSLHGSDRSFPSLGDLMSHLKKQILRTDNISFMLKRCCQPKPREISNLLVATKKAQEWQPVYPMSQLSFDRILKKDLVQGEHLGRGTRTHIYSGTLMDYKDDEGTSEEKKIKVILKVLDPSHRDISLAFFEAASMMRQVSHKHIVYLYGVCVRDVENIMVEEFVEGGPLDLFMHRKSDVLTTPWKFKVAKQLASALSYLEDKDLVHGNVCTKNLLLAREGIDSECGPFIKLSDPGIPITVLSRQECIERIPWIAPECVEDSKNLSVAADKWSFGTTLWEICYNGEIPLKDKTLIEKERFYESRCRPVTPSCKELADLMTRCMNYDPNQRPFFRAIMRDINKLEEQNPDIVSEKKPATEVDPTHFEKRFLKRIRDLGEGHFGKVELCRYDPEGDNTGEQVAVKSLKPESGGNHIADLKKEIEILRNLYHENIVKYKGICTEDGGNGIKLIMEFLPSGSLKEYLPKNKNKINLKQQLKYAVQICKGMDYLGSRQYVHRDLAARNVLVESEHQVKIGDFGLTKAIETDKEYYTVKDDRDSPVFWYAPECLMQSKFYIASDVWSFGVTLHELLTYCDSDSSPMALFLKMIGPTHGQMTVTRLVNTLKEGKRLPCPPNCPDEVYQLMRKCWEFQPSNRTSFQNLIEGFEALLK

Cc1nc(C2CCN(C(=O)c3ccc(OC(F)(F)F)cc3N)CC2)c2ncc(N3CCN(C)CC3)cc2n1 [BAY-693]
inactive: residual activity [1] 100% | residual activity [2] 95% | residual activity [3] 100% | residual activity [4] 97% | residual activity [5] 86% | residual activity [6] 92% | residual activity [7] 100% | inhibition [8] 4.34%

CN1CCN(c2cnc3c(C4CCN(C(=O)c5ccc(OC(F)(F)F)cc5N)CC4)ncnc3c2)CC1 [BAY-885]
inactive: residual activity [1] 100% | residual activity [2] 100% | residual activity [3] 98% | residual activity [4] 85% | residual activity [5] 94% | residual activity [6] 100% | residual activity [7] 100% | inhibition [8] 0.94%
